Experimental data from patent US20100144688A1, “23-Substituted Derivatives of Lupane-type Pentacyclic Triterpenoids” (ADVANCED LIFE SCIENCES, INC., priority 2008, published 2010).

Experiments:
[1] = system: human leukemia HL-60 cells; conditions: by decrease in telomerase activity and down-regulation of bcl-2; cited from earlier work
SK-MEL-2 (melanoma) = test: MTS cell viability assay, SK-MEL-2; format: cell-based
Experimental: (§1) Cells were plated, the evening before treatment, for each treatment on 96-well plates (1×10^4 cells/well) in 100 μL volume per well. Analog solutions were prepared by diluting each test compound in DMSO (10 mM) with the appropriate cell growth media for each individual cell line, or in “Universal Media” if several cell lines were to be assayed in parallel, immediately prior to cell treatment. Universal Media consisted of 5 mL sodium pyruvate (100× liquid stock, MediaTech), 5 mL glucose (100×, 45% liquid stock, MediaTech), 5 mL Penicillin/Streptomycin (100× liquid stock, MediaTech), 10 mL sodium bicarbonate (50× liquid stock, MediaTech), 25 mL Fetal Calf Serum, 1.25 mL insulin (4 mg/mL, Gibco) and 449 mL RPMI media with 2 mM L-glutamine for a total volume of 500 mL.
(§2) Cells were treated by aspirating plating media from each well and adding 80 μL of betulinic acid (control) or each analog solution in serial dilutions to the adherent cells. All treatments were performed in triplicate. Growth media (80 μL) was added to 3 blank wells (no cells) to measure background from the growth media. Growth media alone (no DMSO or test compound) was added to 3 wells containing cells to measure the baseline MTS activity. Vehicle (DMSO) control in serial dilutions, added to cells, was also included to monitor basal toxicity from DMSO. Cells were incubated at 37° C. for 72 h, or 120 h for the OVCAR cell lines. MTS reagent (per 96-well plate) were prepared by combining 2 mL of MTS working solution (Cell Titer Aqueous Non-Radioactive Cell Proliferation Assay, Promega, cat#G1112), 100 μL of 0.92 mg/mL phenazine methosulfate/Dulbecco's PBS and 2.1 mL growth media. MTS reagent (40 μL) was added to each well and incubated at 37° C. for 1.5 to 4 h. Plates were gently shaken by hand until solution in each well appeared homogenous. Absorbances at 490 nm were measured on a Wallac Victor II plate reader at multiple time points following the addition of MTS reagent for each plate. Triplicate absorbance (490 nm) measurements were averaged following background (no cell) subtraction for each drug concentration. Percent Cell Viability was calculated for each drug concentration using the following equation:
(§3) {[Absorbance(analog treated)]/[Absorbance(DMSO treated)]}×100%
(§4) Percent viability (y-axis) was plotted against drug concentration (x-axis) and the resulting graph was used to determine the 50% inhibitory concentration (IC50) for each drug.
(§5) Cytotoxicity dose response for the synthesized triterpenoid derivatives in SK-MEL-2 (melanoma), A-375 (melanoma), Daoy (glioblastoma), LN-229 (glioblastoma), OVCAR-3 (ovarian carcinoma), HT-29 (colon carcinoma), MCF-7 (breast carcinoma) cell lines using the standard MTS assay (described above) is summarized in Table 1.

[2] = system: murine melanoma B16 cells; conditions: cited from earlier work
Daoy (glioblastoma) = test: MTS cell viability assay, Daoy; format: cell-based; conditions: 72 h incubation
Experimental: as §1, §2, §3, §4, §5

[3] = system: human colon carcinoma cell lines (Caco-2); conditions: Caco-2, at approximately 60 minutes; cited from earlier work
A-375 (melanoma) = test: MTS cell viability assay, A-375; format: cell-based
Experimental: as §1, §2, §3, §4, §5

MCF-7 (breast carcinoma) = test: MTS cell viability assay, MCF-7; format: cell-based
Experimental: as §1, §2, §3, §4, §5

HT-29 (colon carcinoma) = test: MTS cell viability assay, HT-29; format: cell-based
Experimental: as §1, §2, §3, §4, §5

LN-229 (glioblastoma) = test: MTS cell viability assay, LN-229; format: cell-based
Experimental: as §1, §2, §3, §4, §5

[4] = system: OVCAR-3 (ovarian carcinoma); test: MTS cell viability assay, OVCAR-3; format: cell-based; conditions: 120 h for the OVCAR cell lines
Experimental: as §1
Cells were treated by aspirating plating media from each well and adding 80 μL of betulinic acid (control) or each analog solution in serial dilutions to the adherent cells. […] Absorbances at 490 nm were measured on a Wallac Victor II plate reader at multiple time points following the addition of MTS reagent for each plate. Triplicate absorbance (490 nm) measurements were averaged following background (no cell) subtraction for each drug concentration. Percent Cell Viability was calculated for each drug concentration using the following equation:
{[Absorbance(analog treated)]/[Absorbance(DMSO treated)]}×100% […]

[5] = Homo sapiens, SK-MEL-2, 72 h incubation
[6] = Homo sapiens, A-375, 72 h incubation
[7] = Homo sapiens, MCF7, 72 h incubation
[8] = Homo sapiens, HT-29, 72 h incubation
[9] = Homo sapiens, LN-229, 72 h incubation

Structure (SMILES) | IC50 (SK-MEL-2 (melanoma); [5]) [µM] | IC50 (Daoy (glioblastoma); Homo sapiens, Daoy) [µM] | further results
C=C(C)[C@@H]1CC[C@]2(C(=O)O)CC[C@]3(C)[C@H](CC[C@@H]4[C@@]5(C)CC[C@H](O)C(C)(CO)[C@@H]5CC[C@]43C)[C@@H]12 (stereo partly drawn) [Compound 1, 23-Hydroxybetulinic acid] | > 75 | > 75 | growth arrest and apoptotic cell death, HL-60 [1]: induces growth arrest and apoptotic cell death; growth arrest and apoptotic cell death, B16 ([2]; by increase in reactive oxidative species and dissipation of mitochondrial membrane potential): induces growth arrest and apoptotic cell death; potency against murine melanoma B16 cells ([2]; compared with betulinic acid (2)): increased potency; intracellular concentration (cellular uptake) [3]: 906.7 μM/mg protein
C=C(C)[C@@H]1CC[C@]2(C(=O)O)CC[C@]3(C)[C@H](CC[C@@H]4[C@@]5(C)CC[C@H](O)C(C)(C)[C@@H]5CC[C@]43C)[C@@H]12 [Compound 2, betulinic acid, reference compound] | – | – | IC50 (A-375 (melanoma); 72 h incubation): 51 µM; IC50 (MCF-7 (breast carcinoma); 72 h incubation): 50 µM; IC50 (SK-MEL-2 (melanoma); 72 h incubation): 33 µM; IC50 (HT-29 (colon carcinoma); 72 h incubation): 37 µM; IC50 (LN-229 (glioblastoma); 72 h incubation): 61 µM; IC50 [4]: 59 µM; IC50 (Daoy (glioblastoma)): 31 µM
C=C(C)[C@@H]1CC[C@]2(C(=O)O)CC[C@]3(C)[C@H](CC[C@@H]4[C@@]5(C)CCC(=O)C(C)(CO)[C@@H]5CC[C@]43C)[C@@H]12 (stereo partly drawn) [Compound 4, 23-hydroxybetulonic acid, reference compound] | 33 | 59 | –
C=C(C)[C@@H]1CC[C@]2(CO)CC[C@]3(C)[C@H](CC[C@@H]4[C@@]5(C)CC[C@H](O)C(C)(CO)[C@@H]5CC[C@]43C)[C@@H]12 (stereo partly drawn) [Compound 5, 23-hydroxybetulin, reference compound] | > 75 | 65 | –
C=C(C)[C@@H]1CC[C@]2(CO)CC[C@]3(C)[C@H](CC[C@@H]4[C@@]5(C)CCC(=NOC(C)=O)C(C)(COC(C)=O)[C@@H]5CC[C@]43C)[C@@H]12 (stereo partly drawn) [Compound 15b] | 35 | 34 | –
C=C(C)[C@@H]1CC[C@]2(COC(C)=O)CC[C@]3(C)[C@H](CC[C@@H]4[C@@]5(C)CCC(=NO)C(C)(CO)[C@@H]5CC[C@]43C)[C@@H]12 (stereo partly drawn) [Compound 17c] | 16 | 16 | –
C=C(C)[C@@H]1CC[C@]2(CO)CC[C@]3(C)[C@H](CC[C@@H]4[C@@]5(C)CCC(=O)C(C)(CO)[C@@H]5CC[C@]43C)[C@@H]12 (stereo partly drawn) [Compound 18b] | > 75 | 34 | –
C=C(C)[C@@H]1CC[C@]2(COC(C)=O)CC[C@]3(C)[C@H](CC[C@@H]4[C@@]5(C)CCC(=O)C(C)(CO)[C@@H]5CC[C@]43C)[C@@H]12 (stereo partly drawn) [Compound 18c] | 29 | 16 | –
C=C(C)[C@@H]1CC[C@]2(C(=O)O)CC[C@]3(C)[C@H](CC[C@@H]4[C@@]5(C)CCC(N)C(C)(CO)[C@@H]5CC[C@]43C)[C@@H]12 (stereo partly drawn) [Compound 22] | 36 | 38 | –
C=C(C)[C@@H]1CC[C@]2(CO)CC[C@]3(C)[C@H](CC[C@@H]4[C@@]5(C)CCC(N)C(C)(CO)[C@@H]5CC[C@]43C)[C@@H]12 (stereo partly drawn) [Compound 23] | 2 | 2 | IC50 (A-375 (melanoma); [6]): 5 µM; IC50 (MCF-7 (breast carcinoma); [7]): 5 µM; IC50 (HT-29 (colon carcinoma); [8]): 6 µM; IC50 (LN-229 (glioblastoma); [9]): 15 µM
C=C(C)[C@@H]1CC[C@]2(COC(C)=O)CC[C@]3(C)[C@H](CC[C@@H]4[C@@]5(C)CCC(NC(C)=O)C(C)(COC(C)=O)[C@@H]5CC[C@]43C)[C@@H]12 (stereo partly drawn) [Compound 25] | 36 | 38 | –
C=C(C)[C@@H]1CC[C@]2(CO)CC[C@]3(C)[C@H](CC[C@@H]4[C@@]5(C)CCC(NC(C)=O)C(C)(CO)[C@@H]5CC[C@]43C)[C@@H]12 (stereo partly drawn) [Compound 27] | 64 | > 75 | –
C=C(C)[C@@H]1CC[C@]2(C=NO)CC[C@]3(C)[C@H](CC[C@@H]4[C@@]5(C)CCC(=NOC(C)=O)C(C)(COC(C)=O)[C@@H]5CC[C@]43C)[C@@H]12 (stereo partly drawn) [Compound 29] | 16 | 14 | –
C=C(C)[C@@H]1CC[C@]2(C=NO)CC[C@]3(C)[C@H](CC[C@@H]4[C@@]5(C)CCC(=NO)C(C)(CO)[C@@H]5CC[C@]43C)[C@@H]12 (stereo partly drawn) [Compound 30] | 3 | 5 | IC50 (A-375 (melanoma); [6]): 4 µM; IC50 (MCF-7 (breast carcinoma); [7]): < 2 µM; IC50 (HT-29 (colon carcinoma); [8]): 13 µM; IC50 (LN-229 (glioblastoma); [9]): 16 µM
C=C(C)[C@@H]1CC[C@]2(C#N)CC[C@]3(C)[C@H](CC[C@@H]4[C@@]5(C)CCC(=NOC(C)=O)C(C)(COC(C)=O)[C@@H]5CC[C@]43C)[C@@H]12 (stereo partly drawn) [Compound 35] | 24 | 31 | –
C=C(C)[C@@H]1CC[C@]2(C#N)CC[C@]3(C)[C@H](CC[C@@H]4[C@@]5(C)CCC(N)C(C)(CO)[C@@H]5CC[C@]43C)[C@@H]12 (stereo partly drawn) [Compound 37] | 14 | 17 | –
C=C(C)[C@@H]1CC[C@]2(COC(C)=O)CC[C@]3(C)[C@H](CC[C@@H]4[C@@]5(C)CCC(=O)C(C)(COC(C)=O)[C@@H]5CC[C@]43C)[C@@H]12 (stereo partly drawn) [Compound 38] | 18 | 31 | –
C=C(CO)[C@@H]1CC[C@]2(C#N)CC[C@]3(C)[C@H](CC[C@@H]4[C@@]5(C)CCC(=NOC(C)=O)C(C)(COC(C)=O)[C@@H]5CC[C@]43C)[C@@H]12 (stereo partly drawn) [Compound 39d] | 14 | 33 | melting point: 141 to 143 °C
C=C(CO)[C@@H]1CC[C@]2(COC(C)=O)CC[C@]3(C)[C@H](CC[C@@H]4[C@@]5(C)CCC(=O)C(C)(COC(C)=O)[C@@H]5CC[C@]43C)[C@@H]12 (stereo partly drawn) [Compound 40c] | 33 | 56 | –
C=C(CO)[C@@H]1CC[C@]2(C(=O)O)CC[C@]3(C)[C@H](CC[C@@H]4[C@@]5(C)CC[C@H](O)C(C)(CO)[C@@H]5CC[C@]43C)[C@@H]12 (stereo partly drawn) [Compound 43a] | > 75 | > 75 | –
C=C(CO)[C@@H]1CC[C@]2(COC(C)=O)CC[C@]3(C)[C@H](CC[C@@H]4[C@@]5(C)CC[C@H](O)C(C)(COC(C)=O)[C@@H]5CC[C@]43C)[C@@H]12 (stereo partly drawn) [Compound 43e] | 16 | 16 | –
C=C(CO)[C@@H]1CC[C@]2(C(=O)O)CC[C@]3(C)[C@H](CC[C@@H]4[C@@]5(C)CCC(N)C(C)(CO)[C@@H]5CC[C@]43C)[C@@H]12 (stereo partly drawn) [Compound 44a] | > 75 | > 75 | –
C=C(CO)[C@@H]1CC[C@]2(CO)CC[C@]3(C)[C@H](CC[C@@H]4[C@@]5(C)CCC(N)C(C)(CO)[C@@H]5CC[C@]43C)[C@@H]12 (stereo partly drawn) [Compound 44b] | 17 | 18 | –
C=C(CO)[C@@H]1CC[C@]2(C#N)CC[C@]3(C)[C@H](CC[C@@H]4[C@@]5(C)CCC(N)C(C)(CO)[C@@H]5CC[C@]43C)[C@@H]12 (stereo partly drawn) [Compound 44d] | 32 | 73 | –
C=C(C=O)[C@@H]1CC[C@]2(COC(C)=O)CC[C@]3(C)[C@H](CC[C@@H]4[C@@]5(C)CCC(=O)C(C)(COC(C)=O)[C@@H]5CC[C@]43C)[C@@H]12 (stereo partly drawn) [Compound 49a] | 5 | 9 | IC50 (A-375 (melanoma); [6]): 5 µM; IC50 (MCF-7 (breast carcinoma); [7]): 4 µM; IC50 (HT-29 (colon carcinoma); [8]): 5 µM; IC50 (LN-229 (glioblastoma); [9]): 15 µM
